Values of other authors in paper PMC8089043 (Journal of controlled release : official journal of the …, 2021).

Key:
[1] = rats, high doses
[2] = in vivo

CC(C)=CCC[C@]1(C)C=Cc2c(O)c3c(c(CC=C(C)C)c2O1)O[C@]12C(=C[C@@H]4C[C@H]1C(C)(C)O[C@@]2(C/C=C(/C)C(=O)O)C4=O)C3=O [GA, gambogic acid]
dose exhibiting hepatic and renal toxicities [1]: > 120 mg/kg

O=c1oc2cc(O)ccc2c2ccc(O)cc12 [UA, urolithin A]
safety of diets containing gram quantities [2]: safe
